# Measured values taken from US9006246B2, “Tetrahydrocarboline derivative” (Ono Pharmaceutical Co., Ltd., priority 2010, dated 2015).
# Where a name gives a salt, the structure may show the parent alone.
# Biological target: human ENPP2 (Homo sapiens (Human), UniProt Q13822)
# Assay: Measurement of human ENPP2 inhibitory activity
# Assay type: biochemical
# Settings: 1 μM test compound; 16:0-LPC substrate, 37° C., 24 hours; read-out: ENPP2 inhibition rate(%) (1 μM)
# Protocol: 10 μL of a test compound solution (10% dimethyl sulfoxide) at each concentration and 40 μL of a 5 μg/mL human ENPP2 solution (buffer A: 100 mmol/L Tris-HCl (pH 9.0), 500 mmol/L NaCl, 5 mmol/L MgCl2, 0.05% Triton X-100) were mixed, 50 μL of a 2 mmol/L 16:0-lysophosphatidylcholine (LPC) solution (buffer A) was further added to react at 37° C. for 24 hours. Subsequently, to 10 μL of the reaction solution was added 90 μL of a measurement buffer (0.5 mmol/L aminoantipyrine, 0.3 mmol/L N-ethyl-N-(2-hydroxy-3-sulfopropyl)-3-methylaniline, 1 U/mL peroxidase, 3 U/mL choline oxidase, 100 mmol/L Tris-HCl (pH 8.5), 5 mmol/L CaCl2) to react at 37° C. for 20 minutes, and spectrophotometric determination was performed at 555 nm.
# Using a standard curve, a choline production amount (enzyme activity) in each test compound was calculated, and the inhibitory activity rate of each test compound was calculated, wherein the enzyme activity in a positive control to which a test compound is not added, was a 0% inhibition rate, and the enzyme activity in a negative control to which a test compound and human ENPP2 are not added, were 100% inhibition. Further, concerning the present compounds shown in Table 3, an IC50 value was calculated from inhibitory activity rate at each concentration.
row,inhibition at 1 µM [%],SMILES
1,67.7,"COC(=O)CCCCC(=O)N1CCc2c(n(CCCc3ccccc3)c3ccccc23)C1 [Example 2, methyl 6-oxo-6-[9-(3-phenylpropyl)-1,3,4,9-tetrahydro-2H-beta-carbolin-2-yl]hexanoate]"
2,95.1,"O=C(O)CCCCCC(=O)N1CCc2c(n(CCCc3ccc(F)cc3)c3ccccc23)C1 [Example 3(19), 7-{9-[3-(4-fluorophenyl)propyl]-1,3,4,9-tetrahydro-2H-beta-carbolin-2-yl}-7-oxoheptanoic acid]"
3,59.3,"O=C(O)CCCC(=O)N1CCc2c(n(CCCc3ccccc3)c3ncccc23)C1 [Example 9(26), 5-oxo-5-[9-(3-phenylpropyl)-5,6,8,9-tetrahydro-7H-pyrido[4′,3′:4,5]pyrrolo[2,3-b]pyridin-7-yl]pentanoic acid]"
4,76.6,"O=C(O)CCCCC(=O)N1CCc2c(n(CCOc3ccccc3)c3ncccc23)C1 [Example 9(28), 6-oxo-6-[9-(2-phenoxyethyl)-5,6,8,9-tetrahydro-7H-pyrido[4′,3′:4,5]pyrrolo[2,3-b]pyridin-7-yl]hexanoic acid]"
5,82.4,"O=C(O)CCCCC(=O)N1CCc2c(n(CCSc3ccccc3)c3ncccc23)C1 [Example 9(31), 6-oxo-6-{9-[2-(phenylthio)ethyl]-5,6,8,9-tetrahydro-7H-pyrido[4′,3′:4,5]pyrrolo[2,3-b]pyridin-7-yl}hexanoic acid]"
6,69.3,"O=C(O)CCCCC(=O)N1CCc2c(n(Cc3cccs3)c3ncccc23)C1 [Example 9(59), 6-oxo-6-[9-(2-thienylmethyl)-5,6,8,9-tetrahydro-7H-pyrido[4′,3′:4,5]pyrrolo[2,3-b]pyridin-7-yl]hexanoic acid]"
7,91.9,"CC(C)(CCCC(=O)N1CCc2c(n(Cc3ccccc3)c3ccccc23)C1)C(=O)O [Example 12(27), 6-(9-benzyl-1,3,4,9-tetrahydro-2H-beta-carbolin-2-yl)-2,2-dimethyl-6-oxohexanoic acid]"
8,84.1,"CC(C)(CCC(=O)N1CCc2c(n(Cc3ccccc3)c3ccccc23)C1)CC(=O)O [Example 15, 6-(9-benzyl-1,3,4,9-tetrahydro-2H-beta-carbolin-2-yl)-3,3-dimethyl-6-oxohexanoic acid]"
9,89.6,"CC(C)(OCC(=O)N1CCc2c(n(Cc3cccc(F)c3)c3ncccc23)C1)C(=O)O [Example 18(1), 2-{2-[9-(3-fluorobenzyl)-5,6,8,9-tetrahydro-7H-pyrido[4′,3′:4,5]pyrrolo[2,3-b]pyridin-7-yl]-2-oxoethoxy}-2-methylpropanoic acid]"
10,96.2,"CC1CN(C(=O)CCCC(C)(C)C(=O)O)Cc2c1c1cccnc1n2Cc1cccc(F)c1 (stereo not drawn) [Example 23, 6-[9-(3-fluorobenzyl)-5-methyl-5,6,8,9-tetrahydro-7H-pyrido[4′,3′:4,5]pyrrolo[2,3-b]pyridin-7-yl]-2,2-dimethyl-6-oxohexanoic acid]"
11,98.2,"O=C(C[C@H]1CC[C@H](C(=O)O)CC1)N1CCc2c(n(Cc3ccc(F)cc3F)c3ncccc23)C1 [Example 31(32), trans-4-{2-[9-(2,4-difluorobenzyl)-5,6,8,9-tetrahydro-7H-pyrido[4′,3′:4,5]pyrrolo[2,3-b]pyridin-7-yl]-2-oxoethyl}cyclohexanecarboxylic acid]"
12,98.6,"O=C(C[C@H]1CC[C@H](C(=O)O)CC1)N1CCc2c(n(Cc3ccc(Cl)cc3)c3ncccc23)C1 [Example 31(34), trans-4-{2-[9-(4-chlorobenzyl)-5,6,8,9-tetrahydro-7H-pyrido[4′,3′:4,5]pyrrolo[2,3-b]pyridin-7-yl]-2-oxoethyl}cyclohexanecarboxylic acid]"
13,99,"O=C(CC12CCC(C(=O)O)(CC1)CC2)N1CCc2c(n(Cc3cc(F)cc(F)c3)c3ncccc23)C1 [Example 31(128), 4-{2-[9-(3,5-difluorobenzyl)-5,6,8,9-tetrahydro-7H-pyrido[4′,3′:4,5]pyrrolo[2,3-b]pyridin-7-yl]-2-oxoethyl}bicyclo[2.2.2]octane-1-carboxylic acid]"
14,99.8,"O=C(CC12CCC(C(=O)O)(CC1)CC2)N1CCc2c(n(Cc3cc(F)c(F)cc3F)c3ncccc23)C1 [Example 31(129), 4-{2-oxo-2-[9-(2,4,5-trifluorobenzyl)-5,6,8,9-tetrahydro-7H-pyrido[4′,3′:4,5]pyrrolo[2,3-b]pyridin-7-yl]ethyl}bicyclo[2.2.2]octane-1-carboxylic acid]"
15,99.5,"CC1(C)[C@@H](CC(=O)N2CCc3c(n(Cc4ccc(Cl)cc4F)c4ncccc34)C2)CC[C@@]1(C)C(=O)O [Example 31(160), (1R,3R)-3-{2-[9-(4-chloro-2-fluorobenzyl)-5,6,8,9-tetrahydro-7H-pyrido[4′,3′:4,5]pyrrolo[2,3-b]pyridin-7-yl]-2-oxoethyl}-1,2,2-trimethylcyclopentanecarboxylic acid]"
16,99.5,"CC1(C)[C@@H](CC(=O)N2CCc3c(n(Cc4ccc(F)cc4)c4ncccc34)C2)CC[C@@]1(C)C(=O)O [Example 31(162), (1R,3R)-3-{2-[9-(4-fluorobenzyl)-5,6,8,9-tetrahydro-7H-pyrido[4′,3′:4,5]pyrrolo[2,3-b]pyridin-7-yl]-2-oxoethyl}-1,2,2-trimethylcyclopentanecarboxylic acid]"
17,98,"O=C(CC12CCC(C(=O)O)(CC1)CC2)N1CCc2c(n(Cc3ccc(F)c(F)c3)c3ncccc23)C1 [Example 31(170), 4-{2-[9-(3,4-difluorobenzyl)-5,6,8,9-tetrahydro-7H-pyrido[4′,3′:4,5]pyrrolo[2,3-b]pyridin-7-yl]-2-oxoethyl}bicyclo[2.2.2]octane-1-carboxylic acid]"
18,98.7,"O=C(CC12CCC(C(=O)O)(CC1)C2)N1CCc2c(n(Cc3cccc(F)c3)c3ncccc23)C1 [Example 31(181), 4-{2-[9-(3-fluorobenzyl)-5,6,8,9-tetrahydro-7H-pyrido[4′,3′:4,5]pyrrolo[2,3-b]pyridin-7-yl]-2-oxoethyl}bicyclo[2.2.1]heptane-1-carboxylic acid]"
19,98.9,"O=C(CC12CCC(C(=O)O)(CC1)C2)N1CCc2c(n(Cc3ccc(F)cc3F)c3ncccc23)C1 [Example 31(182), 4-{2-[9-(2,4-difluorobenzyl)-5,6,8,9-tetrahydro-7H-pyrido[4′,3′:4,5]pyrrolo[2,3-b]pyridin-7-yl]-2-oxoethyl}bicyclo[2.2.1]heptane-1-carboxylic acid]"

# Same assay, conditions: 16:0-LPC substrate, 37° C., 24 hours
row,IC50 [nM],SMILES
1,16,"O=C(O)CCCCC(=O)N1CCc2c(n(CCC3CCCCC3)c3ncccc23)C1 [Example 9(2), 6-[9-(2-cyclohexylethyl)-5,6,8,9-tetrahydro-7H-pyrido[4′,3′:4,5]pyrrolo[2,3-b]pyridin-7-yl]-6-oxohexanoic acid]"
2,91,"O=C(O)CCCCC(=O)N1CCc2c(n(Cc3cccc(F)c3)c3ncccc23)C1 [Example 9, 6-[9-(3-fluorobenzyl)-5,6,8,9-tetrahydro-7H-pyrido[4′,3′:4,5]pyrrolo[2,3-b]pyridin-7-yl]-6-oxohexanoic acid]"
3,9.6,"CC(C)(CCCC(=O)N1CCc2c(n(Cc3ccc(Cl)s3)c3ncccc23)C1)C(=O)O [Example 12(42), 6-{9-[(5-chloro-2-thienyl)methyl]-5,6,8,9-tetrahydro-7H-pyrido[4′,3′:4,5]pyrrolo[2,3-b]pyridin-7-yl}-2,2-dimethyl-6-oxohexanoic acid]"
4,6.7,"CC(C)(CCCC(=O)N1CCc2c(n(Cc3ccc(F)cc3F)c3ncccc23)C1)C(=O)O [Example 12(97), 6-[9-(2,4-difluorobenzyl)-5,6,8,9-tetrahydro-7H-pyrido[4′,3′:4,5]pyrrolo[2,3-b]pyridin-7-yl]-2,2-dimethyl-6-oxohexanoic acid]"
5,83,"CC(C)(CNCC(=O)N1CCc2c(n(Cc3cccc(F)c3)c3ncccc23)C1)C(=O)O [Example 20, 3-({2-[9-(3-fluorobenzyl)-5,6,8,9-tetrahydro-7H-pyrido[4′,3′:4,5]pyrrolo[2,3-b]pyridin-7-yl]-2-oxoethyl}amino)-2,2-dimethylpropanoic acid hydrochloride]"
6,11,"O=C(CC12CCC(C(=O)O)(CC1)CC2)N1CCc2c(n(Cc3cccc(F)c3)c3ncccc23)C1 [Example 31(127), 4-{2-[9-(3-fluorobenzyl)-5,6,8,9-tetrahydro-7H-pyrido[4′,3′:4,5]pyrrolo[2,3-b]pyridin-7-yl]-2-oxoethyl}bicyclo[2.2.2]octane-1-carboxylic acid]"
7,11,"O=C(CC12CCC(C(=O)O)(CC1)CC2)N1CCc2c(n(Cc3ccc(Cl)cc3)c3ncccc23)C1 [Example 31(140), 4-{2-[9-(4-chlorobenzyl)-5,6,8,9-tetrahydro-7H-pyrido[4′,3′:4,5]pyrrolo[2,3-b]pyridin-7-yl]-2-oxoethyl}bicyclo[2.2.2]octane-1-carboxylic acid]"
8,13,"CC1(C)[C@@H](CC(=O)N2CCc3c(n(Cc4ccc(F)c(Cl)c4)c4ncccc34)C2)CC[C@@]1(C)C(=O)O [Example 31(169), (1R,3R)-3-{2-[9-(3-chloro-4-fluorobenzyl)-5,6,8,9-tetrahydro-7H-pyrido[4′,3′:4,5]pyrrolo[2,3-b]pyridin-7-yl]-2-oxoethyl}-1,2,2-trimethylcyclopentanecarboxylic acid]"
